Experimental data reported in patent US20240246970A1, “SUBSTITUTED HETERO-BICYCLOCOMPOUNDS AS SUBTYPE SELECTIVE NICOTINIC ACETYLCHOLINE RECEPTOR INHIBITORS” (THE BOARD OF TRUSTEES OF THE UNIVERSITY OF ILLINOIS, priority 2021, published 2024).
Like-named read-outs stand apart in the source and are kept apart here.

Molecular target: T1, rat α3β4 nAChR (Rattus norvegicus, UniProt P04757+P12392)
T1 construct: expressed in transfected cells; host or cells: HEK293 (rα3β4-HEK293, kept under G-416 selection)
T1 sequence (P04757 26-499): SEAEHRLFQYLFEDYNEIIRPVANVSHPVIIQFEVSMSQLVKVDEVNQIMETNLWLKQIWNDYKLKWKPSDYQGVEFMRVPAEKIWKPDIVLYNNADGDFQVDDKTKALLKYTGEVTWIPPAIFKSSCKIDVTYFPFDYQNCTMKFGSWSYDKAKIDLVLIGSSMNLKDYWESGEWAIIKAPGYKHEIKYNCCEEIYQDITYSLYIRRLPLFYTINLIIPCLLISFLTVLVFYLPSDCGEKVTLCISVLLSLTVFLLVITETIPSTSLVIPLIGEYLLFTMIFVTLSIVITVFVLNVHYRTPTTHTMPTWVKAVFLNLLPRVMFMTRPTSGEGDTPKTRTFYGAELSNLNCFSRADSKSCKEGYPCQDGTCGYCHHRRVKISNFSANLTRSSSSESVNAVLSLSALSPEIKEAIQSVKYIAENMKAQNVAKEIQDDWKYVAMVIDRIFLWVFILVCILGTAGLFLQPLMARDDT
T1 sequence (P12392 21-495): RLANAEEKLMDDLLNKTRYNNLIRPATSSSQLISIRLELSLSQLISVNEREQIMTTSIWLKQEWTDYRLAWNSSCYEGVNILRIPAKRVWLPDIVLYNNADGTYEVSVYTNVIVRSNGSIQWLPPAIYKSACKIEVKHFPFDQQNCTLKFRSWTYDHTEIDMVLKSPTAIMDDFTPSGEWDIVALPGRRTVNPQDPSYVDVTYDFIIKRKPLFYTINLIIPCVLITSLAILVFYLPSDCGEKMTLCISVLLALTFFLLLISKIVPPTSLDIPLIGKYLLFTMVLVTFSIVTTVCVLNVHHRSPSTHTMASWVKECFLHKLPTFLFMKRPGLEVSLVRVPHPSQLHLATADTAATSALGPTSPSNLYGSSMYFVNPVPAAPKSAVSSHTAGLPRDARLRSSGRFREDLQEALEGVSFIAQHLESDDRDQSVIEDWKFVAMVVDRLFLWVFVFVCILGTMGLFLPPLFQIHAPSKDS
Test: Calcium influx assay (dual agonist/antagonist, FLIPR calcium 6) in HEK293 cells expressing rat α3β4 nAChR
Type: cell-based
Procedure: FIGS. 2A-2B show dual agonist/antagonist fluorescence assays. […] For agonist assays, 12 concentrations of test compounds were added to the cells ([…], final concentrations).
FIGS. 3A-3B show concentration response curves. […] Each concentration-response point represents a minimum of two technical replicates and three biological replicates. EC50, Emax, and IC50 values were calculated from corresponding concentration-response curves fitted using the logistical curve in OriginPro.
Assay Description. HEK293 cells expressing the rat α3β4 nAChR were loaded with an intracellular, calcium-sensitive dye. Activation of the receptor results in an increase in the intracellular calcium concentration and a corresponding increase in fluorescent signal. Multiple concentrations of test compounds were first applied to the rα3β4-HEK293 cells and monitored for their ability to activate α3β4 nAChRs.
Cell culture. […] For fluorescence assays, the cells were seeded into 96-well flat bottom, black wall plates, at a density of approximately 50,000 cells per well in 75 μL of media.
Cells seeded at this density grew into a confluent monolayer in 24 h. Ca^2+ fluorescence assays. Ca^2+ uptake was determined using a FLIPR calcium 6 assay.
For dye loading, the fluorescent dye was reconstituted in 10 mL assay buffer according to the manufacturer's protocol. 75 μL of the dye solution was added to each well and the plate was incubated at 37° C. for 1 h. Plates were then transferred to a FlexStation 3 maintained at 37° C.
Dual Agonist/AntagonistAssay. […] For agonist assays, 12 concentrations of test compounds were added to the cells ([…], final concentrations).
Once again, the fluorescence measured for 28 seconds prior to addition and 90 seconds afterwards.
Data reduction. […] Each concentration-response point represents a minimum of two technical replicates and three biological replicates. EC50, Emax, and IC50 values were calculated from corresponding concentration-response curves (see FIGS. 3A-3B) fitted using the logistical curve in OriginPro.

[1] = Example 5, α3β4 nAChR, read-out: IC50

| SMILES | IC50 [1] [µM] | other results |
| --- | --- | --- |
| CC1=CCC2CC1C(c1ccnc3ccccc13)N(C)C2(C)C (stereo not shown) | 1.4 | – |
| CCN1C(c2ccc(F)c(C(F)(F)F)c2)C2CC(CC=C2C)C1(C)C (stereo not shown) | 0.76 | – |
| CC1=CCC2CC1C(c1ccc(F)c(C(F)(F)F)c1)OC2(C)C (stereo not shown) [drawing 51] | – | IC50 (IC50, Example 5 text, α3β4 nAChR): > 100 µM |
| CC1=CCC2CC1C(c1ccc(F)c(C(F)(F)F)c1)OC2(C)C (stereo not shown) [drawing 115] | – | IC50 (α3β4 nAChR IC50, Table 4, R1 and R2 methyl, R3 NH unless otherwise indicated): > 200 µM |
